Like-named read-outs stand apart in the source and are kept apart here.
Experiments:
lambsquarters = test: Test B pre-/postemergence herbicide test; assay type: in vivo, Chenopodium album
Outline: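 Flooded paddy rice and barnyardgrass were treated at the 2-leaf stage; upland plantings received compound either on sown seed or on 1- to 4-leaf seedlings. All were kept 13–15 days in a greenhouse and scored visually, 0–100, relative to untreated plants.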

barnyardgrass = test: Test B flooded paddy test; assay type: in vivo, Echinochloa crus-galli; details: 1000 g ai/ha, scale 0 to 100 (0 no effect, 100 complete control)
Outline: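 After treating 2-leaf paddy plants or 2–18 cm postemergence plants (1 to 4 leaves) with formulated chemical, researchers kept them in a greenhouse for 13–15 days. Effects were judged visually versus controls: 0 indicates none, 100 total control.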

rice = test: Test C flooded paddy test; assay type: in vivo, Oryza sativa; details: for Plant response rating, Rice: 500 g ai/ha, visual rating after 12 to 14 days
Outline: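 Postemergence sprays applied to plants 2 to 18 cm tall (1- to 4-leaf stage); paddy species grown to 2-leaf stage under flooding. After 12 to 14 days in greenhouse, visual rating versus untreated controls on 0–100 scale (0 no effect, 100 complete control).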

pigweed = test: Test C pre-/postemergence herbicide test; assay type: in vivo, Amaranthus retroflexus
Outline: (§1)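 Greenhouse-grown plants were evaluated visually 12 to 14 days after treatment, with 100 meaning complete control and 0 no effect. Application was preemergence, or postemergence at 2 to 18 cm.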

Surinam grass = test: Test C pre-/postemergence herbicide test; assay type: in vivo, Urochloa decumbens; details: for Plant response rating (0 = no effect, 100 = complete control), Surinam Grass / Plant response rating, Surinam Grass: preemergence
Outline: as §1

goosegrass = test: Test C pre-/postemergence herbicide test; assay type: in vivo, Eleusine indica; details: for Plant response rating (0 = no effect, 100 = complete control), Goosegrass / Plant response rating, Goosegrass: preemergence
Outline: as §1

soybean = test: Test C pre-/postemergence herbicide test; assay type: in vivo, Glycine max; details: for Plant response rating (0 = no effect, 100 = complete control), Soybean / Plant response rating, Soybean: preemergence
Outline: as §1

giant foxtail = test: Test A pre-/postemergence herbicide test; assay type: in vivo, Setaria faberi; details: Setaria faberi, 240 h; for pest or weed control at 500 g/ha: 500 g ai/ha; for pest or weed control at 2000 g/ha: 2000 g ai/ha
Outline: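 Plants are held in greenhouse about ten days after treatment, then compared with untreated controls and scored 0 (no effect) to 100 (complete control). Preemergence dosing is a directed soil spray on sown sandy loam; postemergence dosing is spray to runoff at 2–10 cm height.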

[1] = 250 g ai/ha, scale of 0 to 100, 0 is no effect, 100 is complete control
[2] = scale 0 to 100 (0 no effect, 100 complete control)
[3] = 125 g ai/ha, scale 0 (no effect) to 100 (complete control), visual, 12 to 14 days, preemergence
[4] = Preemergence, 500 g ai/ha, scale 0 to 100, 0 no effect, 100 complete control
[5] = 125 g ai/ha, scale 0 (no effect) to 100 (complete control), visual, 12 to 14 days
[6] = 250 g ai/ha, scale 0 to 100 (0 no effect, 100 complete control), visual, 12 to 14 days
[7] = 125 g ai/ha, scale 0 to 100 (0 no effect, 100 complete control)
[8] = 62 g ai/ha, preemergence, scale 0 to 100
[9] = 500 g ai/ha, scale 0 to 100 (0 no effect, 100 complete control), visual, 12 to 14 days, preemergence
[10] = 500 g ai/ha, scale 0 to 100 (0 no effect, 100 complete control), visual, 12 to 14 days
[11] = Postemergence, 500 g ai/ha, scale 0 to 100
[12] = post-emergence, Postemergence, 0 to 100 scale, 0 no effect, 100 complete control, read-out: Plant response rating, Foxtail, Giant

C=CCn1nc(C(C)(C)C)cc1C(=O)Nc1cccc(C(=O)NCC)c1 [Compound 56]
Plant response rating, Lambsquarters (lambsquarters; Postemergence, 500 g ai/ha, visual rating after 13 to 15 days, scale 0 (no effect) to 100 (complete control)): 90 | Lambsquarters plant response rating (lambsquarters; Preemergence, 500 g ai/ha, scale 0 to 100): 100 | Lambsquarters plant response rating (lambsquarters; postemergence, 125 g ai/ha, visual rating, scale 0 (no effect) to 100 (complete control)): 80 | Plant response rating, Lambsquarters (lambsquarters; preemergence, 125 g ai/ha, 0 to 100 scale, 0 is no effect, 100 is complete control): 100 | Barnyardgrass plant response rating (barnyardgrass; visual rating, 13 to 15 days): 80 | Rice plant response rating (rice; 62 g ai/ha, scale 0 to 100 (0 no effect, 100 complete control)): 0 | Rice plant response rating (rice; 125 g ai/ha, scale of 0 to 100, 0 is no effect, 100 is complete control): 15 | Rice plant response rating (rice; [1]): 25 | Plant response rating, Rice (rice; [2]): 35 | Plant response rating (0 = no effect, 100 = complete control), Pigweed (pigweed; 62 g ai/ha, preemergence): 100 | Plant response rating, Pigweed (pigweed; [3]): 100 | Plant response rating, Pigweed (pigweed; 250 g ai/ha, scale 0 to 100 (0 no effect, 100 complete control), visual, 12 to 14 days, preemergence): 100 | Pigweed plant response rating (pigweed; [4]): 100 | Plant response rating (0 = no effect, 100 = complete control), Surinam Grass (Surinam grass; 62 g ai/ha): 10 | Plant response rating, Surinam Grass (Surinam grass; [5]): 15 | Plant response rating, Surinam Grass (Surinam grass; [6]): 60 | Surinam Grass plant response rating (Surinam grass; [4]): 75 | Plant response rating (0 = no effect, 100 = complete control), Goosegrass (goosegrass; 62 g ai/ha): 60 | Plant response rating, Goosegrass (goosegrass; [5]): 85 | Plant response rating, Goosegrass (goosegrass; [6]): 90 | Goosegrass plant response rating (goosegrass; [4]): 95 | Plant response rating (0 = no effect, 100 = complete control), Soybean (soybean; 62 g ai/ha): 0 | Plant response rating, Soybean (soybean; [5]): 0 | Plant response rating, Soybean (soybean; [6]): 10 | Soybean plant response rating (soybean; [4]): 15

CCc1nn(C(C)C)nc1C(=O)Nc1cccc(C(=S)N(C)C)c1 [Compound 409]
Plant response rating (0 to 100 scale), Lambsquarters (lambsquarters; 125 g ai/ha, 0 is no effect, 100 is complete control, preemergence): 100 | Lambsquarters plant response rating (lambsquarters; Postemergence, 500 g ai/ha, scale 0 (no effect) to 100 (complete control)): 70 | Lambsquarters plant response rating (lambsquarters; postemergence, 125 g ai/ha, scale 0 to 100): 30 | Barnyardgrass plant response rating (barnyardgrass): 90 | Rice plant response rating (rice; 62 g ai/ha, scale 0 to 100): 20 | Rice plant response rating (rice; [7]): 40 | Rice plant response rating (rice; [1]): 50 | Plant response rating, Rice (rice; [2]): 60 | Plant response rating, Pigweed (pigweed; [8]): 100 | Plant response rating, Pigweed (pigweed; [9]): 100 | Plant response rating, Surinam Grass (Surinam grass; 62 g ai/ha, scale 0 to 100): 50 | Plant response rating (0 = no effect, 100 = complete control), Surinam Grass (Surinam grass; 125 g ai/ha): 85 | Plant response rating, Surinam Grass (Surinam grass; [10]): 95 | Plant response rating, Goosegrass (goosegrass; 62 g ai/ha, scale 0 to 100): 80 | Plant response rating (0 = no effect, 100 = complete control), Goosegrass (goosegrass; 125 g ai/ha): 90 | Plant response rating, Goosegrass (goosegrass; 250 g ai/ha, scale 0-100): 95 | Plant response rating, Goosegrass (goosegrass; [10]): 95 | Plant response rating, Soybean (soybean; 62 g ai/ha, scale 0 to 100): 0 | Plant response rating (0 = no effect, 100 = complete control), Soybean (soybean; 125 g ai/ha): 80 | Plant response rating, Soybean (soybean; [10]): 100

CCn1nc(C(C)(C)C)cc1C(=O)Nc1ccc(OC)c(OC)c1 [Compound 298]
Lambsquarters plant response rating (0 to 100 scale) (lambsquarters; 125 g ai/ha, 0 = no effect, 100 = complete control, preemergence): 100 | Lambsquarters plant response rating (lambsquarters; 125 g ai/ha, visual rating, scale 0 (no effect) to 100 (complete control), postemergence): 40 | Plant response rating, Lambsquarters (lambsquarters; 500 g ai/ha, visual rating, 0 = no effect, 100 = complete control, preemergence): 100 | Lambsquarters plant response rating (lambsquarters; postemergence, 500 g ai/ha, scale 0 to 100, 0 is no effect, 100 is complete control): 90 | Barnyardgrass plant response rating (barnyardgrass): 90 | Rice plant response rating (rice; 62 g ai/ha, scale 0 to 100): 45 | Rice plant response rating (rice; [7]): 60 | Rice plant response rating (rice; [1]): 65 | Plant response rating, Rice (rice; [2]): 75 | Plant response rating, Pigweed (pigweed; [8]): 100 | Plant response rating, Pigweed (pigweed; [3]): 100 | Plant response rating, Pigweed (pigweed; 250 g ai/ha, scale 0-100, preemergence): 100 | Plant response rating, Pigweed (pigweed; [9]): 100 | Plant response rating, Surinam Grass (Surinam grass; 62 g ai/ha, scale 0 to 100): 5 | Plant response rating, Surinam Grass (Surinam grass; 250 g ai/ha, scale 0-100): 40 | Plant response rating, Surinam Grass (Surinam grass; [10]): 70 | Plant response rating, Goosegrass (goosegrass; 62 g ai/ha, scale 0 to 100): 85 | Plant response rating, Goosegrass (goosegrass; [5]): 95 | Plant response rating, Goosegrass (goosegrass; 250 g ai/ha, scale 0-100): 100 | Plant response rating, Goosegrass (goosegrass; [10]): 100 | Plant response rating, Soybean (soybean; 62 g ai/ha, scale 0 to 100): 0 | Plant response rating, Soybean (soybean; 250 g ai/ha, scale 0-100): 5 | Plant response rating, Soybean (soybean; [10]): 60

CCn1nc(C(C)(C)C)cc1C(=O)Nc1cccc(C(=O)OCCF)c1 [Compound 82, 2-fluoroethyl 3-[[[3-(1,1-dimethylethyl)-1-ethyl-1H-pyrazol-5-yl]-carbonyl]amino]benzoate]
pest or weed control at 500 g/ha (lambsquarters; Chenopodium album, post-emergence, 336 h, Postemergence, 500 g ai/ha, visual rating after 13 to 15 days, scale 0 (no effect) to 100 (complete control), read-out: Plant response rating, Lambsquarters): 50% | pest or weed control at 125 g/ha (lambsquarters; Chenopodium album, post-emergence, 336 h, postemergence, 125 g ai/ha, visual rating, scale 0 (no effect) to 100 (complete control), read-out: Lambsquarters plant response rating): 20% | pest or weed control at 125 g/ha (lambsquarters; Chenopodium album, pre-emergence, 336 h, preemergence, 125 g ai/ha, 0 to 100 scale, 0 is no effect, 100 is complete control, read-out: Plant response rating, Lambsquarters): 0% | pest or weed control at 1000 g/ha (barnyardgrass; Echinochloa crus-galli, 336 h, visual rating, 13 to 15 days, read-out: Barnyardgrass plant response rating): 30% | pest or weed control at 250 g/ha (pigweed; Amaranthus retroflexus, post-emergence, Postemergence, 250 g ai/ha, scale 0 to 100, 0 no effect, 100 complete control, read-out: Plant response rating, Pigweed): 100% | pest or weed control at 125 g/ha (pigweed; Amaranthus retroflexus, post-emergence, postemergence, 125 g ai/ha, scale 0 to 100, read-out: Plant response rating, Pigweed): 100% | pest or weed control at 62 g/ha (pigweed; Amaranthus retroflexus, post-emergence, postemergence, 62 g ai/ha, scale 0 to 100, read-out: Plant response rating, Pigweed): 85% | Pigweed plant response rating (pigweed; [11]): 100 | Surinam Grass plant response rating (Surinam grass; [11]): 40 | pest or weed control at 250 g/ha (Surinam grass; Urochloa decumbens, post-emergence, 312 h, Postemergence, 250 g ai/ha, scale 0 to 100, 0 no effect, 100 complete control, read-out: Plant response rating, Surinam Grass): 20% | pest or weed control at 125 g/ha (Surinam grass; Urochloa decumbens, post-emergence, 312 h, postemergence, 125 g ai/ha, scale 0 to 100, read-out: Plant response rating, Surinam Grass): 10% | pest or weed control at 62 g/ha (Surinam grass; Urochloa decumbens, post-emergence, 312 h, postemergence, 62 g ai/ha, scale 0 to 100, read-out: Plant response rating, Surinam Grass): 10% | pest or weed control at 500 g/ha (giant foxtail; [12]): 20% | pest or weed control at 2000 g/ha (giant foxtail; [12]): 20% | pest or weed control at 500 g/ha (giant foxtail; pre-emergence, Preemergence, visual rating, 0 to 100 scale (0 no effect, 100 complete control), read-out: Foxtail, Giant plant response rating): 0% | pest or weed control at 2000 g/ha (giant foxtail; pre-emergence, Preemergence, 0 to 100 scale, 0 no effect, 100 complete control, read-out: Foxtail, Giant plant response rating): 0% | pest or weed control at 250 g/ha (goosegrass; Eleusine indica, post-emergence, 312 h, Postemergence, 250 g ai/ha, scale 0 to 100, 0 no effect, 100 complete control, read-out: Plant response rating, Goosegrass): 10% | pest or weed control at 125 g/ha (goosegrass; Eleusine indica, post-emergence, 312 h, postemergence, 125 g ai/ha, scale 0 to 100, read-out: Plant response rating, Goosegrass): 10% | pest or weed control at 62 g/ha (goosegrass; Eleusine indica, post-emergence, 312 h, postemergence, 62 g ai/ha, scale 0 to 100, read-out: Plant response rating, Goosegrass): 0% | Goosegrass plant response rating (goosegrass; [11]): 10 | plant injury at 250 g/ha (soybean; Glycine max, post-emergence, Postemergence, 250 g ai/ha, scale 0 to 100, 0 no effect, 100 complete control, read-out: Plant response rating, Soybean): 40% | plant injury at 125 g/ha (soybean; Glycine max, post-emergence, postemergence, 125 g ai/ha, scale 0 to 100, read-out: Plant response rating, Soybean): 30% | plant injury at 62 g/ha (soybean; Glycine max, post-emergence, postemergence, 62 g ai/ha, scale 0 to 100, read-out: Plant response rating, Soybean): 20% | Soybean plant response rating (soybean; [11]): 40

Reference: patent publication US20060069132A1, “Azolecarboxamide herbicides” (priority 2004, published 2006)
